This passage reports TGI results from PubChem BioAssay (NCI).

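Growth conditions: 96-well plates. Treatment: test compound, 48 hours, 5 concentrations. Analysis: linear interpolation between bracketing concentrations; unreached endpoints set to highest concentration. TGI: total growth inhibition.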 A value given as a limit tells only on which side of the number the result lay.

Some test systems named below: A498 renal; A549 NSCLC; CAKI-1 renal; CCRF-CEM leukemia; HCC-2998 colon; HCT-116 colon; HS 578T breast; IGROV1 ovarian; M14 melanoma; MOLT-4 leukemia; NCI-H460 lung; NCI/ADR-RES ovarian; OVCAR-5 ovarian; PC-3 prostate; SF-539 CNS; SK-MEL-28 melanoma; SN12C renal; TK-10 renal; U251 CNS; UO-31 renal.
Common to all, as to assay: DTP human tumour cell line panel, 48 h

As a reminder, the TGI is the concentration at which net growth stops. A high value points to lower sensitivity of the cells. For `COC(=O)/C=C1\CCCN1CCc1cc2c(cc1CC#N)OCO2`, the TGI in the test with A498 renal is 80.2 µM; in the test with A549 NSCLC, above 100 µM; in the test with CAKI-1 renal it was above 100 µM; in the test on CCRF-CEM leukemia it was above 100 µM; in the test with HCC-2998 colon, 93.7 µM; in the test with HCT-116 colon, above 100 µM. For the same compound, the TGI with HS 578T breast, in the test on IGROV1 ovarian, in the test on M14 melanoma, in the test with MOLT-4 leukemia, in the test with NCI-H460 lung and in the test on NCI/ADR-RES ovarian was above 100 µM throughout. Besides, the TGI with OVCAR-5 ovarian, in the test with PC-3 prostate, in the test on SF-539 CNS, in the test on SK-MEL-28 melanoma, in the test with SN12C renal and in the test with TK-10 renal was above 100 µM in each case. In addition, the TGI in the test with U251 CNS and with UO-31 renal was above 100 µM each time.
For `COC(=O)/C=C(\C)CC/C=C(\C)CCC(O)C(C)(C)O` (stereo not given), the TGI in the test on A498 renal was above 100 µM; in the test with A549 NSCLC, above 100 µM; in the test with CAKI-1 renal it was 48.5 µM; in the test with CCRF-CEM leukemia, 41.8 µM; in the test on HCC-2998 colon, 47.2 µM; in the test with HCT-116 colon it was 44.9 µM. Also, the TGI with HS 578T breast was 98.5 µM; in the test with IGROV1 ovarian it was above 100 µM; in the test with M14 melanoma, 81.3 µM; with MOLT-4 leukemia, 39 µM; with NCI-H460 lung, 37.8 µM; in the test on NCI/ADR-RES ovarian, 52.5 µM. For the same compound, the TGI was above 100 µM in the test with OVCAR-5 ovarian; 30.8 µM in the test with PC-3 prostate; 35.9 µM in the test with SF-539 CNS; 38.2 µM in the test with SK-MEL-28 melanoma; 37.5 µM in the test on SN12C renal; above 100 µM in the test on TK-10 renal. Besides, the TGI in the test on U251 CNS was 79.3 µM; in the test with UO-31 renal, above 100 µM.
On to `NCCNCCCNC(=O)c1cc(-c2ccccc2)nc2ccccc12`, for which the TGI with A498 renal is above 100 µM; with A549 NSCLC, above 100 µM; in the test with CAKI-1 renal, above 100 µM; in the test with CCRF-CEM leukemia, 51.2 µM; with HCC-2998 colon, 34.4 µM; in the test with HCT-116 colon, above 100 µM. Besides, the TGI in the test on HS 578T breast is above 100 µM; in the test with IGROV1 ovarian it was above 100 µM; with M14 melanoma, 28.3 µM; in the test with MOLT-4 leukemia, 52.3 µM; with NCI-H460 lung, above 100 µM; in the test on NCI/ADR-RES ovarian, above 100 µM. For the same compound, the total growth inhibition concentration (TGI) in the test on OVCAR-5 ovarian is above 100 µM; in the test with PC-3 prostate it was above 100 µM; in the test with SF-539 CNS it was 36.7 µM; in the test with SK-MEL-28 melanoma, 33 µM; in the test with SN12C renal, above 100 µM; with TK-10 renal, above 100 µM. Also, the TGI with U251 CNS is 36.6 µM; in the test on UO-31 renal, above 100 µM.
For the compound `COc1ccc2c(c1)CCc1c-2n(CCN2CCOCC2)c2ccc(OC)cc12`, the TGI with A498 renal is above 100 µM; with A549 NSCLC, above 100 µM; in the test on CAKI-1 renal, above 100 µM; in the test with CCRF-CEM leukemia, 53.1 µM; in the test with HCC-2998 colon, 33.2 µM; in the test with HCT-116 colon, above 100 µM. The TGI in the test with HS 578T breast is above 100 µM; in the test on IGROV1 ovarian, above 100 µM; in the test with M14 melanoma, above 100 µM; with MOLT-4 leukemia it was 41.1 µM; with NCI-H460 lung, above 100 µM; with NCI/ADR-RES ovarian, above 100 µM. For the same compound, the TGI in the test on OVCAR-5 ovarian, in the test on PC-3 prostate, with SF-539 CNS, with SK-MEL-28 melanoma, in the test with SN12C renal and with TK-10 renal was above 100 µM in each case. For the same compound, the TGI in the test with U251 CNS and in the test with UO-31 renal was above 100 µM each time.
